How the values were obtained:
[1] = biological target: T1, HLA-A*02:01 molecule (Homo sapiens, UniProt P04439, D140Y/D185E/D98H/E176V/E277Q/G131W/G231S/I119V/I121R/I166T/I218V/L300P/L318F/N151K/N90K/P208A/P217A/Q86G/Q94H/R138H/R169H/T345S); experiment: BFA decay assay (peptide-MHC dissociation) in T2 cells; type: cell-based; settings: peptide 50 μM, 1X BFA 1 h at 37°C, harvested every two hours T0-T8, flow cytometry, triplicate
T1 construct: host or cells: T2 (174xCEM.T2) human TAP-deficient cells
Method: Cells were maintained at 37 °C in a humidified incubator with 5% CO2.

[2] = biological target: T1, HLA-A*02:01 molecule; experiment: Peptide binding affinity assay in TAP-deficient T2 cells; type: cell-based; settings: peptide 5, 10, 20, 50 and 100 μM, 16 h at 27°C + 2 h at 37 °C, anti HLA-A2 R-PE, flow cytometry, triplicate
Method: Peptide binding affinity to HLA-A*02:01 molecule and BFA decay assays were performed for each candidate peptide. Human TAP-deficient T2 cell line (174xCEM.T2; ATCC CRL 1992™) was purchased from American Type Culture Collection (ATCC; https://www.atcc.org/) and cultured in Iscove's modified Dulbecco's medium (IMDM; Gibco Life Technologies) containing 25 mM HEPES and 2 mM L-Glut, supplemented with 20% fetal bovine serum (FBS; Capricorn Scientific GmbH), 100 IU/ml penicillin and 100 μg/ml streptomycin (Gibco Life Technologies). Cells were maintained at 37 °C in a humidified incubator with 5% CO2. Briefly, T2 were seeded at 3.5 × 10^5 cells per well in 24 well plates and incubated 16 h at 27°C with peptides (final concentrations: 5, 10, 20, 50 and 100 μM) in IMDM serum free medium. The next day, cells have been incubated for additional 2 h at 37 °C. Following incubation, cells were harvested and centrifuged at 200 × g for 5 min. Subsequently, cells were washed twice with phosphate buffered saline (1X PBS; Gibco Life Technologies) and stained with R-PE conjugated anti human HLA-A2 mono-clonal antibody (cat. 343,306; BioLegend), for 30 min at 4 °C, and analyzed with the Attune™ NxT flow cytometer (Thermo Fisher Scientific). […] A fluorescence index (FI) was calculated using the following formula: FI = [mean fluorescence intensity (MFI) sample – MFI background]/MFI background, where MFI background represents the value without peptide. […] Cells were harvested every two hours (T0, T2, T4, T6, T8), washed with phosphate buffered saline (1X PBS; Gibco Life Technologies), stained with anti HLA-A*0201 fluorescent monoclonal antibody (cat. 343,306; BioLegend) and analyzed by flow cytometry. The stability of each peptide bound to HLA-A*02:01 was measured as the DC50 value, which was defined as an estimate of the time required for a 50% reduction of the MFI value at time 0. The DC50 value was calculated according to the formula: MFI at indicated time points/MFI at time 0 × 100. […]

Sequence | 50% dissociation value (Thalf), peptide-MHC dissociation kinetics [1] | binding to HLA-A*02:01 (HLA surface expression on T2 cells) [2]
VVAGIVVLV [TAA derived from the colon ca-associated EPCAM protein] | 4 h | dose-dependent increase in the HLA surface expression on T2 cells over the background
VVAGIIALV |  | dose-dependent increase in the HLA surface expression on T2 cells over the background
VIAGIVALV |  | dose-dependent increase in the HLA surface expression on T2 cells over the background

Reference: paper PMC9569184, “Antigenic molecular mimicry in viral-mediated protection from cancer: the HIV case” (Journal of Translational Medicine, 2022)
